Measurements as given in patent publication US9713602B1, “Method for facilitating the oxygen release of hemoglobin-based blood substitutes” (National Sun Yat-sen University, priority 2016, dated 2017).
“Also recorded” adds a separate entry of the source. One block for each molecule: values may come before it.

Experiments:
fetal hemoglobin (HbF) = fetal hemoglobin (HbF) (Homo sapiens, UniProt P69892+P69905); experiment: oxygen equilibrium curves / P50 value of fetal hemoglobin (HbF); assay type: biochemical; details: for shift of the oxygen equilibrium curve of fetal hemoglobin (HbF): 0.6-4.0 mM compound with 0.6 or 2.5 mM 2,3-BPG (FIG. 9, 10); for oxygen affinity modulating effect (increase of P50 value) on fetal hemoglobin compared with 2,3-BPG: FIG. 8, varying concentrations; for oxygen release efficiency of fetal hemoglobin (HbF) relative to normal hemoglobin: with 2,3-BPG (FIG. 9, 10)
hemoglobin = hemoglobin (Homo sapiens, UniProt P68871+P69905); experiment: oxygen equilibrium curves / P50 value of hemoglobin; assay type: biochemical; details: for effect with 2,3-BPG in modulating hemoglobin allostery: FIG. 2
hemoglobin, sequence (P69905 2-142 limits assumed): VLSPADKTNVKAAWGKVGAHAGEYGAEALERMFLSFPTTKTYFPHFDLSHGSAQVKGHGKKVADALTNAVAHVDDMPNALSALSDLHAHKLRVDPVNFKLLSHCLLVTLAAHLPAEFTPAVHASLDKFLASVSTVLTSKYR
hemoglobin, sequence (P68871 2-147 limits assumed): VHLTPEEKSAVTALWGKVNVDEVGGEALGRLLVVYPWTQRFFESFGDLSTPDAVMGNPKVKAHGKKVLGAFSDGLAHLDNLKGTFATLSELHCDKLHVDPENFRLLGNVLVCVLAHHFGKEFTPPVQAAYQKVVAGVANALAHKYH

fetal hemoglobin (HbF), sequence (P69905 2-142 limits assumed): as the sequence (P69905 2-142 limits assumed) above
fetal hemoglobin (HbF), sequence (P69892 2-147 limits assumed): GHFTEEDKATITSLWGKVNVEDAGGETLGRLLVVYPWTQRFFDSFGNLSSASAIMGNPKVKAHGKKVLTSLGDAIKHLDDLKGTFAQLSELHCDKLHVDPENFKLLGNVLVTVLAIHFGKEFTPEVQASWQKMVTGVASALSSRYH

- oxygen release efficiency of hemoglobin (hemoglobin; 1.2 mM 2,3-BPG, PO2 20 mmHg): 40%
- oxygen saturation fraction of hemoglobin (hemoglobin; 1.2 mM 2,3-BPG, PO2 20 mmHg (FIG. 7)): approximately 60%
- oxygen saturation fraction of hemoglobin (hemoglobin; 12 mM 2,3-BPG, fixed oxygen partial pressure of 20 mmHg, 80% where no 2,3-BPG is present): 35%
- oxygen release efficiency of hemoglobin (hemoglobin; 12 mM 2,3-BPG, oxygen partial pressure 20 mmHg, 20% without 2,3-BPG): 65%
- P50 value of hemoglobin (hemoglobin; approximately 4 mM 2,3-BPG, no phthalide compound): 18.8 mmHg
- oxygen release efficiency of normal cells (hemoglobin; varying concentrations of 2,3-BPG, PO2 of normal cells, from 20%): ~65%
- oxygen saturation fraction of hemoglobin (hemoglobin; varying concentrations of 2,3-BPG, brain physiological PO2 (33.8±2.6 mmHg), from 90% (FIG. 4)): ~70%
- oxygen release efficiency of hemoglobin (hemoglobin; varying concentrations of 2,3-BPG, brain physiological PO2, from 10%): 30%
SMILES: O=C(O)C(COP(=O)(O)O)OP(=O)(O)O (centres unmarked) [2,3-BPG, 2,3-bisphosphorglycerate]
- modulating effect of 2,3-BPG on fetal hemoglobin (HbF) relative to normal hemoglobin (fetal hemoglobin (HbF)): not as effective as that on the normal hemoglobin

SMILES: CCC/C=C1\OC(=O)c2ccccc21 [Z-butylidenephthalide]
- shift of the oxygen equilibrium curve of fetal hemoglobin (HbF) (fetal hemoglobin (HbF)): effectively shift the oxygen equilibrium curve for the fetal hemoglobin (HbF) to the right; also recorded: effectively shift the oxygen equilibrium curve of the fetal hemoglobin (HbF) to the right
- oxygen affinity modulating effect (increase of P50 value) on fetal hemoglobin compared with 2,3-BPG (fetal hemoglobin (HbF)): stronger modulating effect than 2,3-BPG; also recorded: higher than that of 2,3-BPG
- oxygen release efficiency of fetal hemoglobin (HbF) relative to normal hemoglobin (fetal hemoglobin (HbF)): achieve the same oxygen release efficiency as the normal hemoglobin

- effect with 2,3-BPG in modulating hemoglobin allostery (hemoglobin): synergistic effect
SMILES: CCC/C=C1\OC(=O)C2=C1CCC=C2 [Z-ligustilide]
- shift of the oxygen equilibrium curve of fetal hemoglobin (HbF) (fetal hemoglobin (HbF)): effectively shift the oxygen equilibrium curve for the fetal hemoglobin (HbF) to the right
- oxygen affinity modulating effect (increase of P50 value) on fetal hemoglobin compared with 2,3-BPG (fetal hemoglobin (HbF)): stronger modulating effect than 2,3-BPG; also recorded: higher than that of 2,3-BPG
- oxygen release efficiency of fetal hemoglobin (HbF) relative to normal hemoglobin (fetal hemoglobin (HbF)): achieve the same oxygen release efficiency as the normal hemoglobin

SMILES: CCC/C=C1\OC(=O)C2=C1CC[C@@H](O)[C@@H]2O [senkyunolide I]
- effect with 2,3-BPG in modulating hemoglobin allostery (hemoglobin): synergistic effect
